# Reference: publication PMC12040169 (PLOS Biology, 2025)
# Assay: in vitro
# Details: human, hela cells, % viability
row,SMILES,"viability at 28.5 h, 10 µM"
1,CC(C)=NNC(=O)CSc1nc(N2CCOCC2)c2ccccc2n1 [CBK009114],85.2%
2,CC1=NC(O)(C(F)(F)F)C(c2ccccc2)S1 (centres unmarked) [CBK009121],87.8%
3,COC(=O)CC1CCC(NC(=O)C(F)(F)F)CC1 (centres unmarked) [CBK009129],97.4%
4,CCN(CC)c1nc(Cl)c(C#N)c2c1CN(C)CC2 [CBK009140],99.2%
5,OCCN(CCO)c1ccccc1N(CCO)CCO [CBK009141],85.7%
6,O=C1NC(CCSC2=NCN=N2)Oc2ccccc21 (centres unmarked) [CBK009148],107%
7,Cn1sc(=O)c2cc(S(=O)(=O)NC3CC3)ccc21 [CBK009163],86%
8,COCCCNC(=O)c1cccs1 [CBK009164],91.8%
9,CC1(C)Cc2c(c(-c3ccco3)nc3n[nH]c(N)c23)CO1 [CBK009252],84.3%
10,COC(=O)c1cnc(Sc2ccc(Cl)cc2)nc1C(F)(F)F [CBK009299],95.9%
11,CCCCC(=O)NC(Nc1cc(C)ccn1)(C(F)(F)F)C(F)(F)F [CBK009331],79.6%
12,N#Cc1c(O)nsc1Nc1ccc(Cl)cc1 [CBK009446],94.9%
13,Cc1nn(Cc2nnn(CC(=O)O)n2)c(C)c1Br [CBK009457],101%
14,COC(=O)c1sc(N2CCCC2)c(S(=O)(=O)C(C)C)c1N [CBK009463],87.9%
15,C=C1S/C(=N\c2cc(Cl)cc(Cl)c2)NC1(CC)CC [CBK009484],109%
16,CCOC(=O)C1=CC2C(=NC3=C2CCCC3)C=C1 (centres unmarked) [CBK009652],74.6%
17,CCCC1C2C=CC(C2)C1/C=N/O (centres unmarked) [CBK009671],83.4%
18,CCc1oc2ccc(Cl)cc2c1C(=O)CCN1CCCCC1 [CBK009675C],99.1%
19,CN1CCCc2c1nc1ccc(Br)cc1c2N [CBK009692G],58.9%
20,NC(=S)N/N=C/c1c[nH]nc1-c1ccccc1 [CBK009705],96.5%
21,CC(C)(C)/N=C1/SCC(C)(/C=N\O)S1 (centres unmarked) [CBK009726],98.7%
22,CN(C)CCOC(=O)c1ccc2[nH]c3c(c2c1)CSCC3 [CBK009731C],95.8%
23,NC(=O)c1ccc(C#Cc2ccccc2)o1 [CBK009809],94.8%
24,Nc1nnc(C(=O)c2cc(Br)ccc2N)s1 [CBK009811],102%
25,C[N+](C)(C)C1=C([O-])c2ccccc2C1=O [CBK009824],92.7%

row,SMILES,"viability at 28.5 h, 10 µM"
1,Nc1nonc1-c1nc2ccccc2o1 [CBK009829],91%
2,CCCCNCCOC1CCC[C@@H]1Cl (some centres unmarked) [CBK009839],97.7%
3,CCN(CC)CCOC(=O)C1(c2ccccc2)CCOc2ccccc21 (centres unmarked) [CBK009850C],95.6%
4,CC(=O)Nc1cc(NC(C)=O)c(O)c(C(=O)O)c1 [CBK009871],88.6%
5,COc1ccccc1C(CN)C1CCCCC1 (centres unmarked) [CBK009878],99.7%
6,CC1(C)CC(=O)N(C2CCCCC2)C(=O)C1C#N (centres unmarked) [CBK009894],107%
7,COc1ccccc1CC(c1ccccc1)C1CN(C)CCO1 (centres unmarked) [CBK009925C],116%
8,O=C(Oc1n[nH]c2ccccc12)c1ccc(Cl)cc1 [CBK009976],100%
9,N#CC(c1ccc(Br)cc1)n1ccnc1 (centres unmarked) [CBK009985],85.6%
10,CN(C)CCC(O)(c1ccccc1)c1cc2c(cc1Cl)CCC2 (centres unmarked) [CBK010000C],99.5%
11,CCn1cnc2c1CCC(CN/C(=N/C(=O)c1ccccc1)NC)C2 (centres unmarked) [CBK010036],103%
12,CCn1cnc2c1CC/C(=N\O)C2 [CBK010044],80.6%
13,CC(C)NC(=S)N1CC[C@@]2(NC(N)=O)N=C(N)O[C@H]2C1 [CBK010049],93.1%
14,CCN(CC)CCn1c(-c2ccccc2)c(OCCO)c2ccccc2c1=O [CBK010078],96.9%
15,CCOc1ccc(N)cc1S(N)(=O)=O [CBK010112],93.2%
16,CN(C)CCC1OC(=O)N(c2ccccc2)C1=O (centres unmarked) [CBK010134C],107%
17,Nc1ccc2c(c1)/C(=C/c1c[nH]c3ncccc13)C(=O)N2 [CBK010155T],103%
18,CC(=O)C1=C(C)N2C(=Nc3ccccc3C2(C)C)S1 [CBK010180C],85.5%
19,CCCN[C@@H]1CCc2cc(CNC(=O)c3ccc(C#N)cc3)ccc2C1 [CBK010211C],101%
20,CC(=O)NCC1CC(c2ccc(C3=CCN(C(C)=O)CC3)cc2)=NO1 (centres unmarked) [CBK010245],86.8%
21,NC1OC(COC(=O)c2ccccc2)C(OC(=O)c2ccccc2)C1OC(=O)c1ccccc1 (centres unmarked) [CBK010282],95.3%
22,NC12CC(=O)CC(CC(c3ccccc3)C1)C2 (centres unmarked) [CBK010323C],114%
23,CCCCCCSc1ccc(C(=O)CCCN2CCOCC2)cc1 [CBK010344],116%
24,COc1cccc(N2CCN(CCCOc3ccc(F)cc3)CC2)n1 [CBK010355F],94.6%
25,CC1CCN(c2ccc(C(=O)CCCO)cc2)CC1 [CBK010358],91.8%

row,SMILES,"viability at 28.5 h, 10 µM"
1,CC(=O)NCC1CC(N2CCSCC2)=NO1 (centres unmarked) [CBK010367],85%
2,CC(=O)NCC1CC(c2ccc(OC(C)=O)c(Cl)n2)=NO1 (centres unmarked) [CBK010396],88.8%
3,N#Cc1cn(Cc2ccco2)c(=O)[nH]c1=O [CBK010407],101%
4,COc1cc(C2=NS(=O)(=O)NC3=C2CCCC3)cc(OC)c1OC [CBK010423],90.3%
5,CN(C(=O)c1ccccc1)[C@]1(C)C2CC(C[C@@H]2O)C1(C)C (some centres unmarked) [CBK010498],102%
6,CN(C)[C@H]1CCCC[C@@H]1OC(=O)c1ccc(C(F)(F)F)cc1 [CBK010550F],90.1%
7,C/C(=N\O)c1oc2ccccc2c(=O)c1O [CBK010642],98.6%
8,C1=NC2C(COCc3ccccc3)CCC2N1c1ccccc1 (centres unmarked) [CBK010679],107%
9,CCN(CC)CCNC(=O)c1cc(=O)c2ccccc2o1 [CBK010691],114%
10,CCNc1cccnc1N1CCN(C(=O)CCC(=O)c2ccc(NS(C)(=O)=O)cc2)CC1 [CBK010701],98.2%
11,COc1ccc2c(c1)c(C(NCc1cccc(C(F)(F)F)c1)C(N)=O)nn2Cc1ccccc1 (centres unmarked) [CBK010715],100%
12,CC(C)NC(=S)NC(=O)C1CCC1 [CBK010718],86.2%
13,CCc1ccc(C(=O)c2ccccc2C(=O)O)cc1 [CBK010776],93.7%
14,CNc1ccc(OC(=O)c2ccco2)cc1 [CBK010779],88.1%
15,Cc1c(C(=O)N2CCOCC2)sc2nc(-c3ccc(Cl)cc3)nn12 [CBK010863],91.4%
16,N#CC1CCC(CNC(=O)c2sc3ccccc3c2Cl)CC1 (centres unmarked) [CBK010864],106%
17,Cc1cc(NC(=O)c2cc(Cl)sc2Cl)no1 [CBK010872],84.4%
18,O=C(O)CCCc1nc(-c2ccccn2)no1 [CBK010880],94.8%
19,COc1ccc2c(c1)CCC1CN(C)N=C21 (centres unmarked) [CBK010890],100%
20,NC(=O)c1ccsc1NC(=O)C(F)(F)F [CBK010915],96.4%
21,O=C(O)CCCc1ccc2sc3ccccc3c2c1 [CBK010971],84.8%
22,Cn1c(Cc2nn(C)c(=O)c3ccccc23)nnc1SCC(=O)C(C)(C)C [CBK010985],105%
23,CC12CCCC(=O)N1C(CO)C(c1ccccc1)O2 (centres unmarked) [CBK011013],91.2%
24,CC(C)(C)C(=O)CSc1nnc(Cn2cnc(Cl)c2Cl)o1 [CBK011055],81.2%
25,Cn1nnnc1Sc1cc(=O)n(C)c(=O)n1C [CBK011072],114%

row,SMILES,"viability at 28.5 h, 10 µM"
1,c1ccc(-c2nnc(Cn3cncn3)o2)cc1 [CBK011113],88%
2,COc1ccc(CN2C(=O)CS(=O)(=O)CC2=O)cc1OC [CBK011127],86.4%
3,COc1nc(Cl)nc(Oc2ccc(F)cc2)n1 [CBK011279],122%
4,N#Cc1nccnc1N1CCN(Cc2ccc3c(c2)OCO3)CC1 [CBK011284],83.3%
5,O=c1cc2ncc(-c3ccncc3)cn2[nH]1 [CBK011300],98.3%
6,COc1ccc2c(c1)N1CCCN=C1N2C [CBK011358C],90.8%
7,CSCCC(C(=O)O)N1CNC(=S)NC1 (centres unmarked) [CBK011382],92.3%
8,O=C1CCCCC1SCn1nnc2ccccc21 (centres unmarked) [CBK011412],94.8%
9,COc1cc(OC)c2c(c1)OCC1CON(C)C21 (centres unmarked) [CBK011446],95.6%
10,CNc1snc(N2CCOCC2)c1C#N [CBK011453],93%
11,COc1ccc2c(c1OC)C(=O)N1C2SC(C)(C)C1C(=O)O (centres unmarked) [CBK011479],98.9%
12,O=C(NC1CCCCC1)C1CCC1 [CBK011511],96.5%
13,CC(C)C[C@H]([C@@H]1C[C@@H](C(C)C)C(=O)O1)N1C(=O)c2ccccc2C1=O [CBK011526],93.9%
14,CCN(CC)Cc1nccn1-c1ccc([N+](=O)[O-])cc1C(=O)c1ccccc1Cl [CBK011562F],105%
15,COc1ccc(C2CNC(=O)C2)cc1OC1CCCC1 (centres unmarked) [CBK011603],86.5%
16,CCC(C)C(=O)O[C@H]1C[C@@H](C)C=C2C=C[C@H](C)[C@H](CC[C@@H]3C[C@@H](O)CC(=O)O3)[C@H]21 (some centres unmarked) [CBK011646],85.2%
17,O=C(O)Cc1ccc(-c2ccccc2)cc1 [CBK011660],104%
18,O=c1[nH]c(=O)n(C2CC(O)C(CO)O2)cc1F (centres unmarked) [CBK011695],49.6%
19,CCC(C(=O)O)c1ccc(-n2sc3ccccc3c2=O)cc1 (centres unmarked) [CBK011773],105%
20,Cc1nc(Cl)c(C(=O)NCCc2ccc(S(=O)(=O)NC(=O)NC3CCCCC3)cc2)nc1C [CBK011777],91.3%
21,O=C(COc1cccc(Cl)c1)NCCc1ccc(S(=O)(=O)NC(=O)NC2CCCCC2)cc1 [CBK011798],93.4%
22,CCCNCCc1ccc2c(c1)C(=O)N(Cc1ccc(OC)cc1)C2=O [CBK011826C],87.3%

# Same assay, conditions: human, hela cells, % viability, bulk resorufin, single well
row,SMILES,"viability at 28.5 h, 10 µM"
1,COc1cc(C2OCCNC2C)c(OC)cc1C (centres unmarked) [CBK010347C],90.7%
